`c1ccc2c(c1)c1cccc3ccc4cccc2c4c31` displayed a logP of 6.44.
The result for `c1ccc2c(c1)Sc1ccccc1S2` reads 4.47; that for `c1cc(-c2ccncc2)ccn1`, 1.28; that for `c1ccc2c(c1)cc1ccc3cccc4c5ccccc5c2c1c34`, 7.71.
The result for `c1ccc2c(c1)ccc1c2ccc2ccc3ccccc3c21` reads 7.11; that for `c1ccc2c(c1)ccc1c2ccc2c3ccccc3ccc21`, 7.11.
In turn, `c1cc2ccc3ccc4ccc5ccc6ccc1c1c2c3c4c5c61` displayed a lipophilicity (logP) of 7.64.
The result for `c1ccc2cc3c(cc2c1)oc1ccccc13` reads 5.05; that for `c1ccc2c(c1)c1ccccc1c1c3ccccc3c3ccccc3c21`, 8.39; that for `c1ccc2cc3c(ccc4c5ccccc5ccc34)cc2c1`, 7.11.
The same measure for `c1ccc2cc3c(cc2c1)sc1ccccc13`: 5.34; for `c1ccc(-c2c3ccccc3c(-c3ccccc3)c3ccccc23)cc1`: 8.46.
On to `c1ccc2cc3cc4cc5ccccc5cc4cc3cc2c1`, for which the log partition coefficient (logP) worked out at 7.11.
The same measure for `c1ccc(-c2ccccn2)nc1`: 1.5; for `c1csc(-c2cccs2)c1`: 3.75; for `c1ccc(-c2cccc(-c3ccccn3)n2)nc1`: 1.96.
As to `c1cc2ccc3cc4cccc5ccc6cc(c1)c2c3c6c54`, the logP amounted to 7.04.
The same measure for `c1ccc2c(c1)Cc1ccccc1O2`: 4.23.

The values are drawn from the OPERA property sets (Mansouri et al. 2018).
